# Patent publication US20190225650A1, “PEPTIDOMIMETIC MACROCYCLES AND USE THEREOF IN REGULATING HIF1ALPHA” (AILERON THERAPEUTICS, INC., priority 2013, published 2019)
# Bridge positions count the residues as written; N and C are the ends. Square brackets hold non-standard residues; d marks the D form. Peptide text beside a SMILES is read from it. Cba = N[C@@H](CC1CCC1)C(=O)O; S5 = C=CCCC[C@](C)(N)C(=O)O; Nle = CCCC[C@H](N)C(=O)O
# Key:
# HRE-bla ME-180 cells [1] = assay: Reporter gene assay (HRE-bla ME-180 HIF reporter, GeneBLAzer); assay type: cell-based, human; details: for EC50: 24 hour normoxia
# Method in brief: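 A FRET β-lactamase readout of HIF transcription was used. After compound treatment in 0.3% DMSO/media under normoxic conditions, 20 μl of 6× LiveBLAzer-FRET B/G (CCF4-AM) substrate was added. Plates sat 3 hr at room temperature in the dark and were read at 409 Ex/460Em and 409Ex/530Em on a Synergy 2. Inhibition was compared against DMSO vehicle controls, with chetomin as positive control.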
# HRE-bla ME-180 cells [2] = assay: Cell proliferation assay (viability, MTT, 1% FBS); assay type: cell-based, human
# Protocol: The human cervical cell line HRE-Bla ME-180 was obtained from Invitrogen. 2×10^4 ME-180 cells were plated in 96-well plates (costar) in Opti-MEM plus 1% FBS (Invitrogen). After 4 hr, cells were pretreated with chetomin, peptide or 0.5% DMSO (final concentration in media) vehicle control for 16 hr under normoxia (21% O2); then incubation continued under normoxia or hypoxia (1% O2) using a hypoxia incubator (Thermo Forma model). Viable cell numbers were quantified using CellTiter 96 Non-Radioactive Cell Proliferation kit (Promega, G4100). The results are presented in the column “Viability 1% FBS AVG (MTT V3-24 hr Normoxia) (μM)” of Table 6.
# [3] = target: T1, flag-tagged HIF1α (AA 786-826) / His6-tagged p300 (AA 323-423) complex (Homo sapiens, UniProt Q09472); assay: HIF1α p300 displacement assay (TR FRET, +CHAPS); assay type: binding; details: read-out: IC50 (nM) (HIF1α_p300 Displacement + CHAPS)
# T1 construct: His6-tagged p300 (AA 323-423); made in house; host or cells: E. coli (pETDuet vector)
# Method in brief: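 The co-expressed flag-HIF1α (786-826)/His6-p300 (323-423) complex, purified from E. coli with 0.1 mM ZnSO4, was used at 300 nM final with competitor peptides for 1 h at room temperature. Buffer was 150 mM NaCl, 20 mM HEPES pH 7.4, 7.5 mM CHAPS and 1 mM DTT. Anti-Flag-K (0.5 μM) and anti-His-D2 (4 nM) were then added for 2 h, and IC50s were fitted from the TR-FRET ratio.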
Compound,EC50 (HRE-bla ME-180 cells [1]) [µM],IC50 [3] [nM],18 h Avg % max inhibition at top conc (HIF Rptr-24 hrs normoxia) (μM) (HRE-bla ME-180 cells [1]),Viability 1% FBS AVG (MTT V3-24 hr Normoxia) (μM) (HRE-bla ME-180 cells [2])
CCCC[C@H](NC(=O)[C@H](CC(C)C)NC(=O)[C@@H](NC(=O)[C@H](CCC(=O)O)NC(=O)[C@H](CCC(=O)O)NC(=O)[C@H](CC(=O)O)NC(=O)[C@@H](NC(=O)[C@H](Cc1ccccc1)NC(C)=O)[C@@H](C)CC)C(C)C)C(=O)N[C@@]1(C)CCCC=CCCC[C@@](C)(C(=O)N[C@@H](CCCC)C(=O)N[C@@H](C)C(=O)N[C@@H](CC(C)C)C(N)=O)NC(=O)[C@H]([C@@H](C)CC)NC(=O)[C@H](C(C)C)NC(=O)[C@H](CC(C)C)NC1=O [SP-8] (Ac-FIDEEVL[Nle][S5]LVI[S5][Nle]AL-NH2; staple 9-13),–,–,–,++++ (≥30: ++++)
CCCC[C@@H]1NC(=O)[C@H](CC(C)C)NC(=O)[C@H]([C@@H](C)O)NC(=O)[C@@](C)(NC(=O)[C@H](C)NC(=O)[C@H](CC(=O)O)NC(=O)[C@@H](NC(=O)[C@H](Cc2ccccc2)NC(C)=O)[C@@H](C)CC)CCCC=CCCCC2(CCCC=CCCC[C@](C)(C(=O)N[C@@H](CCCC)C(=O)N[C@@H](C)C(=O)N[C@@H](CC(C)C)C(N)=O)NC(=O)[C@H]([C@@H](C)CC)NC(=O)[C@H](C(C)C)NC(=O)[C@H](CO)NC2=O)NC1=O (stereo partly drawn) [SP-214],> 30,> 700,+++ (≤25 but <50: +++),–
CCCC[C@H](NC(=O)[C@H](CCC(=O)O)NC(=O)[C@@H](NC(=O)[C@@H](NC(=O)[C@H](CC(C)C)NC(=O)[C@]1(C)CCCC=CCCC[C@](C)(NC(=O)[C@H](CCC(=O)O)NC(=O)[C@H](C)NC(=O)[C@@H](NC(=O)[C@H](Cc2ccccc2)NC(C)=O)[C@@H](C)CC)C(=O)N[C@@H](C(C)C)C(=O)N[C@@H](CC(C)C)C(=O)N[C@@H](CCCC)C(=O)N1)C(C)C)[C@@H](C)CC)C(=O)N[C@@H](C)C(=O)N[C@@H](CC(C)C)C(=O)N[C@@H](CC(=O)O)C(=O)N[C@@H](C)C(=O)N[C@H](C(N)=O)[C@@H](C)CC [SP-120] (Ac-FIAE[S5]VL[Nle][S5]LVIE[Nle]ALDAI-NH2; staple 5-9),> 30,≤ 200,+ (<10: +),–
CC[C@H](C)[C@H](NC(=O)[C@H](Cc1ccccc1)NC(C)=O)C(=O)N[C@@H](CC(=O)O)C(=O)N[C@@H](CCC(=O)O)C(=O)N[C@@]1(C)CCCC=CCCC[C@@](C)(C(=O)N[C@@H](CC(C)C)C(=O)N[C@H](C(=O)N[C@H](C(=O)N[C@@H](CCC(=O)O)C(=O)N[C@@H](CCSC)C(=O)N[C@@H](C)C(=O)N[C@@H](CC(C)C)C(=O)N[C@@H](CC(=O)O)C(=O)N[C@@H](CCCNC(=N)N)C(=O)N[C@H](C(=O)N[C@@H](CCCCN)C(=O)N[C@@H](CCC(=O)O)C(=O)N[C@@H](CC(C)C)C(=O)N2CCC[C@H]2C(=O)N[C@@H](CCC(=O)O)C(=O)N[C@@H](CC(C)C)C(=O)N[C@@H](Cc2c[nH]c3ccccc23)C(=O)N[C@@H](CC(C)C)C(N)=O)[C@@H](C)CC)[C@@H](C)CC)C(C)C)NC(=O)[C@H](CCSC)NC(=O)[C@H](CC(C)C)NC(=O)[C@H](C(C)C)NC1=O [SP-107] (Ac-FIDE[S5]VLM[S5]LVIEMALDRIKELPELWL-NH2; staple 5-9),> 30,≤ 200,–,–
CCCC[C@H](NC(=O)[C@H](C)NC(=O)[C@@H](NC(=O)[C@@H](NC(=O)[C@H](CC(C)C)NC(=O)[C@]1(C)CCCC=CCCC[C@](C)(NC(=O)[C@H](CCC(=O)O)NC(=O)[C@H](CC(=O)O)NC(=O)[C@@H](NC(=O)[C@H](Cc2ccccc2)NC(C)=O)[C@@H](C)CC)C(=O)N[C@@H](C(C)C)C(=O)N[C@@H](CC(C)C)C(=O)N[C@@H](CCCC)C(=O)N1)C(C)C)[C@@H](C)CC)C(=O)N[C@@H](C)C(=O)N[C@@H](CC(C)C)C(N)=O [SP-122] (Ac-FIDE[S5]VL[Nle][S5]LVIA[Nle]AL-NH2; staple 5-9),> 30,200 to 400,++ (≤10 but <25: ++),–

# The next lines start with results.
EC50 (HRE-bla ME-180 cells [1]) [µM],IC50 [3] [nM],Compound,18 h Avg % max inhibition at top conc (HIF Rptr-24 hrs normoxia) (μM) (HRE-bla ME-180 cells [1]),Viability 1% FBS AVG (MTT V3-24 hr Normoxia) (μM) (HRE-bla ME-180 cells [2])
≤ 5,–,CC[C@H](C)[C@H](NC(=O)[C@H](CCCNC(=N)N)NC(=O)[C@H](CC(=O)O)NC(=O)[C@H](CC(C)C)NC(=O)[C@H](C)NC(=O)[C@H](CCSC)NC(=O)[C@]1(C)CCCC=CCCC[C@](C)(NC(=O)[C@H](CCSC)NC(=O)[C@H](CC(C)C)NC(=O)[C@@H](NC(=O)[C@H](CCC(N)=O)NC(=O)[C@H](CCC(=O)O)NC(=O)[C@H](CC(=O)O)NC(=O)[C@@H](NC(=O)[C@H](Cc2ccccc2)NC(C)=O)[C@@H](C)CC)C(C)C)C(=O)N[C@@H](CC(C)C)C(=O)N[C@@H](C(C)C)C(=O)N[C@@H]([C@@H](C)CC)C(=O)N1)C(N)=O [SP-282] (Ac-FIDEQVLM[S5]LVI[S5]MALDRI-NH2; staple 9-13),++++ (≥50: ++++),++++ (≥30: ++++)
> 30,> 700,CC[C@H](C)[C@H](NC(=O)[C@H](Cc1ccccc1)NC(C)=O)C(=O)N[C@@H](CC(=O)O)C(=O)N[C@@H](CCC(=O)O)C(=O)N[C@@H](CCC(=O)O)C(=O)N[C@H](C(=O)N[C@@H](CC(C)C)C(=O)N[C@@H](CCSC)C(=O)N[C@@]1(C)CCCC=CCCC[C@@](C)(C(=O)N[C@@H](CCSC)C(=O)N[C@@H](C)C(=O)N[C@@H](CC2CCC2)C(N)=O)NC(=O)[C@H]([C@@H](C)CC)NC(=O)[C@H](C(C)C)NC(=O)[C@H](CC(C)C)NC1=O)C(C)C [SP-237] (Ac-FIDEEVLM[S5]LVI[S5]MA[Cba]-NH2; staple 9-13),+++ (≤25 but <50: +++),–
> 30,200 to 400,CCCC[C@H](NC(=O)[C@H](CCCNC(=N)N)NC(=O)[C@H](CC(=O)O)NC(=O)[C@H](CC(C)C)NC(=O)[C@H](C)NC(=O)[C@H](CCCC)NC(=O)[C@H](C)NC(=O)[C@@H](NC(=O)[C@@H](NC(=O)[C@H](CC(C)C)NC(=O)[C@]1(C)CCCC=CCCC[C@](C)(NC(=O)[C@H](CCC(=O)O)NC(=O)[C@H](CC(=O)O)NC(=O)[C@@H](NC(=O)[C@H](Cc2ccccc2)NC(C)=O)[C@@H](C)CC)C(=O)N[C@@H](C(C)C)C(=O)N[C@@H](CC(C)C)C(=O)N[C@@H](CCCC)C(=O)N1)C(C)C)[C@@H](C)CC)C(N)=O [SP-125] (Ac-FIDE[S5]VL[Nle][S5]LVIA[Nle]ALDR[Nle]-NH2; staple 5-9),+ (<10: +),–
> 30,> 700,CCCC[C@H](NC(=O)[C@H](CCCNC(=N)N)NC(=O)[C@@H](NC(=O)[C@@H](NC(=O)[C@H](CC(C)C)NC(=O)[C@]1(C)CCCC=CCCC[C@](C)(NC(=O)[C@H](CCC(=O)O)NC(=O)[C@H](CC(=O)O)NC(=O)[C@@H](NC(=O)[C@H](Cc2ccccc2)NC(C)=O)[C@@H](C)CC)C(=O)N[C@@H](C(C)C)C(=O)N[C@@H](CC(C)C)C(=O)N[C@@H](CCCC)C(=O)N1)C(C)C)[C@@H](C)CC)C(=O)N[C@@H](C)C(=O)N[C@@H](CC(C)C)C(N)=O [SP-157] (Ac-FIDE[S5]VL[Nle][S5]LVIR[Nle]AL-NH2; staple 5-9),+ (<10: +),–
15 to 30,400 to 700,CC[C@H](C)[C@H](NC(=O)[C@H](Cc1ccccc1)NC(C)=O)C(=O)N[C@@H](CC(=O)O)C(=O)N[C@@H](CCC(N)=O)C(=O)N[C@@H](CCC(=O)O)C(=O)N[C@H](C(=O)N[C@@H](CC(C)C)C(=O)N[C@@H](CCSC)C(=O)N[C@@]1(C)CCCC=CCCC[C@@](C)(C(=O)N[C@@H](CCSC)C(=O)N[C@@H](C)C(=O)N[C@@H](CC(C)C)C(N)=O)NC(=O)[C@H]([C@@H](C)CC)NC(=O)[C@H](C(C)C)NC(=O)[C@H](CC(C)C)NC1=O)C(C)C [SP-233] (Ac-FIDQEVLM[S5]LVI[S5]MAL-NH2; staple 9-13),+++ (≤25 but <50: +++),–
≤ 5,400 to 700,CCCC[C@H](NC(=O)[C@H](CCC(=O)O)NC(=O)[C@@H](NC(=O)[C@@H](NC(=O)[C@H](CC(N)=O)NC(=O)[C@]1(C)CCCC=CCCC[C@](C)(NC(=O)[C@H](C)NC(=O)[C@H](CC(=O)O)NC(=O)[C@@H](NC(=O)[C@H](Cc2ccccc2)NC(C)=O)[C@@H](C)CC)C(=O)N[C@@H]([C@@H](C)O)C(=O)N[C@@H](CC(C)C)C(=O)N[C@@H](CCCC)C(=O)N1)C(C)C)[C@@H](C)CC)C(=O)N[C@@H](C)C(=O)N[C@@H](CC(C)C)C(N)=O [SP-151] (Ac-FIDA[S5]TL[Nle][S5]NVIE[Nle]AL-NH2; staple 5-9),++++ (≥50: ++++),–
